Results from patent US20200069592A1, “HSP90 INHIBITOR ORAL FORMULATIONS AND RELATED METHODS” (Samus Therapeutics, Inc., priority 2017, published 2020).

Columns and labels:
[1] = Plasma pharmacokinetics after single oral dose in ORA-Plus or SyrSpend SF (Example 6), LC-MS/MS; format: in vivo, Sprague Dawley rats; details: for AUC % Extrap / Cl_F / Vz_F / AUC(0-inf) / AUC(0-t) / Cmax / Tmax / half-life: rat plasma; for % AUC0-last test vs reference: rats, ratio of group averages; for AUC(0-inf) / AUC(0-t) / Cmax / Tmax / half-life: female, rat, plasma, po
[2] = Tolerability (body weight, toxicity, maximum tolerated dose) in the Example 5 rat study; format: in vivo; details: free base
Experimental: Ninety-four total animals were observed thereafter. The parenteral administration is performed by tail vein injection.

[3] = G1: free base, 24 mg/kg single oral dose, ORA-plus
[4] = G2: free base, 48 mg/kg single oral dose, ORA-plus, n = 4
[5] = G7: free base, 24 mg/kg single oral dose, SyrSpend, n = 4
[6] = G8: free base, 48 mg/kg single oral dose, SyrSpend
[7] = Sprague Dawley, 24 mg/kg, G1: free base, 24 mg/kg single oral dose, ORA-plus
[8] = Sprague Dawley, 48 mg/kg, G2: free base, 48 mg/kg single oral dose, ORA-plus
[9] = Sprague Dawley, 48 mg/kg, G2: free base, 48 mg/kg single oral dose, ORA-plus, n = 4
[10] = Sprague-Dawley, 24 mg/kg, G7: free base, 24 mg/kg single oral dose, SyrSpend
[11] = Sprague-Dawley, 24 mg/kg, G7: free base, 24 mg/kg single oral dose, SyrSpend, n = 4
[12] = Sprague-Dawley, 48 mg/kg, G8: free base, 48 mg/kg single oral dose, SyrSpend

With `CC(C)(C)CNCCn1c(Sc2cc3c(cc2I)OCO3)nc2c(N)ncnc21` [Compound 2] the “AUC % Extrap” value [1, 3] was 2.77 ± 0.30%, the Cl_F [1, 3] was 249.8 ± 24.2 mL/min/kg and the Vz_F [1, 3] was 50.18 ± 39.85 L/kg. For the same molecule, the “AUC % Extrap” value [1, 4] was 6.22 ± 6.79 %, the Cl_F [1, 4] was 177.2 ± 65.5 mL/min/kg and the Vz_F [1, 4] was 38.84 ± 10.64 L/kg. The “AUC % Extrap” value [1, 5] was 6.89 ± 3.49 %, the Cl_F [1, 5] was 369.7 ± 105 mL/min/kg and the Vz_F [1, 5] was 88.96 ± 44.19 L/kg. For the same molecule, the “AUC % Extrap” value [1, 6] was 1.71 ± 1.37%, the Cl_F [1, 6] was 136 ± 105 mL/min/kg and the Vz_F [1, 6] was 44.20 ± 37.62 L/kg. For the same molecule, the “% AUC0-last test vs reference” value ([1]; Group 1 (24 mg/kg FB ORA-plus) vs Group 3 (24 mg/kg 2HCl ORA-plus)) was 121.69%, the “% AUC0-last test vs reference” value ([1]; Group 1 (24 mg/kg FB ORA-plus) vs Group 4 (48 mg/kg 2HCl ORA-plus)) was 24.79% and the “% AUC0-last test vs reference” value ([1]; Group 1 (24 mg/kg FB ORA-plus) vs Group 7 (24 mg/kg FB SyrSpend)) was 123.40%. The “% AUC0-last test vs reference” value ([1]; Group 1 (24 mg/kg FB ORA-plus) vs Group 9 (24 mg/kg 2HCl SyrSpend)) was 133.31%, the “% AUC0-last test vs reference” value ([1]; Group 2 (48 mg/kg FB ORA-plus) vs Group 4 (48 mg/kg 2HCl ORA-plus)) was 70.46% and the “% AUC0-last test vs reference” value ([1]; Group 2 (48 mg/kg FB ORA-plus) vs Group 8 (48 mg/kg FB SyrSpend)) was 54.72%. The “% AUC0-last test vs reference” value ([1]; Group 2 (48 mg/kg FB ORA-plus) vs Group 10 (48 mg/kg 2HCl SyrSpend)) was 51.93%, the “% AUC0-last test vs reference” value ([1]; Group 7 (24 mg/kg FB SyrSpend) vs Group 9 (24 mg/kg 2HCl SyrSpend)) was 108.03% and the “% AUC0-last test vs reference” value ([1]; Group 8 (48 mg/kg FB SyrSpend) vs Group 10 (48 mg/kg 2HCl SyrSpend)) was 94.91%. For the same molecule, the AUC(0-inf) [1, 7] was 1610 ± 156 ng·h/mL, the AUC(0-t) [1, 7] was 1570 ± 152 ng·h/mL and the Cmax [1, 7] was 579 ± 108 ng/mL. For the same molecule, the Tmax [1, 7] was 1.4 ± 0.55 h, the half-life [1, 7] was 2.36 ± 1.98 h and the AUC(0-t) [1, 8] was 4460 ± 2110 ng·h/mL. For the same molecule, the Cmax [1, 8] was 803 ± 278 ng/mL, the Tmax [1, 8] was 2.8 ± 1.64 h and the AUC(0-inf) [1, 9] was 5060 ± 2070 ng·h/mL. It also gave a half-life [1, 9] of 2.61 ± 0.44 h, an AUC(0-t) [1, 10] of 1270 ± 524 ng·h/mL and a Cmax [1, 10] of 371 ± 196 ng/mL. The Tmax [1, 10] was 1 h, the AUC(0-inf) [1, 11] was 1180 ± 451 ng·h/mL and the half-life [1, 11] was 2.78 ± 1.13 h. The AUC(0-inf) [1, 12] was 8080 ± 4090 ng·h/mL, the AUC(0-t) [1, 12] was 8140 ± 3550 ng·h/mL and the Cmax [1, 12] was 1030 ± 421 ng/mL. The Tmax [1, 12] was 3.4 ± 1.95 h, the half-life [1, 12] was 3.56 ± 1.03 h and the “Time point up to which all animals had quantifiable plasma levels” value ([1]; single oral dose, free base or 2HCl, ORA-Plus or SyrSpend) was no less than 8 h. The MTD ([2]; female, Sprague Dawley, rat, in vivo, iv, intravenously administered, rats, read-out: Maximum tolerated dose) was 24 mg/kg and the “Body weight and toxicity” value ([2]; higher oral doses (above 24 mg/kg), data not shown) was “minimal effects on body weight and limited toxicity”.
